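Tested at 5 concentrations; 48 h exposure; 96-well plates; endpoints linearly interpolated, else capped at highest concentration. Here, GI50 denotes the concentration required for 50% inhibition of growth. The concentration for full growth arrest is given as TGI.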 Where a SMILES comes first, the peptide text is derived from it. [ ]: non-standard residue; d: D form. The star is where a group is joined. ξ: configuration not given here. NMeY = CN[C@@H](Cc1ccc(O)cc1)C(=O)O; Cbz = O=C(OCc1ccccc1)*; ξA = CC(N)C(=O)O
How the values were obtained:
Assay in all cases: NCI anticancer screen, dose series, 48 h
[1] = system: HS 578T breast
[2] = system: IGROV1 ovarian
[3] = system: M14 melanoma
[4] = system: MOLT-4 leukemia
[5] = system: NCI-H226 lung
[6] = system: OVCAR-4 ovarian
[7] = system: OVCAR-5 ovarian
[8] = system: T-47D breast
[9] = system: TK-10 renal
[10] = system: DMS 273 small cell lung
[11] = system: DMS 114 small cell lung

SMILES | TGI [1] [µM] | TGI [2] [µM] | TGI [3] [µM] | TGI [4] [µM] | TGI [5] [µM] | TGI [6] [µM] | TGI [7] [µM] | TGI [8] [µM] | TGI [9] [µM] | TGI [10] [µM] | TGI [11] [µM] | GI50 [1] [µM] | GI50 [2] [µM] | GI50 [3] [µM] | GI50 [4] [µM] | GI50 [5] [µM] | GI50 [6] [µM] | GI50 [7] [µM] | GI50 [8] [µM] | GI50 [9] [µM]
COc1ccc(C[C@@H](C(=O)NCC(N)=O)N(C)C(=O)[C@@H]2CCCN2C(=O)[C@H](CC(C)C)NC(=O)C(C)NC(=O)OCc2ccccc2)cc1 (stereo not given in full) (Cbz-[ξA]LP[NMeY](Me)G-NH2) | > 100 | > 100 | > 100 | > 100 | > 100 | > 100 | > 100 | > 100 | > 100 | – | – | – | – | – | – | – | – | – | – | –
OC(CC(c1ccccc1)c1ccc(Cl)cc1)c1ccc(Cl)cc1 (stereo not given) | > 100 | > 100 | > 100 | > 100 | 97.5 | > 100 | 62 | 88.4 | > 100 | – | – | – | – | – | – | – | – | – | – | –
CCOC(=O)c1cc(-c2ccc(OC)c(OC)c2)c[nH]1 | > 10 | > 10 | > 10 | > 10 | > 10 | > 10 | > 10 | > 10 | > 10 | – | – | – | – | – | – | – | – | – | – | –
CCOC(=O)C1C/C(C)=C(/C)SCCCS1 (stereo not given) | > 100 | > 100 | > 100 | > 100 | > 100 | > 100 | > 100 | > 100 | > 100 | – | – | – | – | – | – | – | – | – | – | –
CN(C)c1ccc(C(=NNC(=O)c2cc3ccccc3[nH]2)c2ccc(N(C)C)cc2)cc1 | 3.74 | 25.9 | 29 | > 100 | > 100 | > 100 | > 45.5 | > 100 | 30.1 | – | – | – | – | – | – | – | – | – | – | –
O=C1c2cc(Cl)ccc2-n2c(noc2=O)C2CSCN12 (stereo not given) | > 100 | > 100 | > 100 | > 100 | > 100 | > 100 | > 100 | > 100 | > 100 | – | – | – | – | – | – | – | – | – | – | –
Cn1c(N)c(/C=N/NC(=O)CC#N)c(=O)n(C)c1=O | > 100 | > 100 | > 100 | > 100 | > 100 | > 100 | > 100 | > 100 | > 100 | – | – | – | – | – | – | – | – | – | – | –
CC(C)=CC(=O)O[C@@H]1CC(C)(C)CC2C3=CCC4[C@]56CC[C@](O)(OC5)C(C)(C)C6CC[C@@]4(C)C3(C)CC[C@]21C(=O)O (stereo not given in full) | > 100 | > 100 | > 100 | > 100 | > 100 | > 100 | > 100 | > 100 | > 100 | – | – | – | – | – | – | – | – | – | – | –
Cc1nc2c(n1Cc1ccc(Cl)cc1)C(=O)c1ccccc1C2=O | – | > 75 | > 75 | > 75 | > 75 | > 75 | – | – | > 75 | > 75 | – | – | – | – | – | – | – | – | – | –
C/C(=N\N=C(N)N)c1c(C(=O)OCCCCCCOC(=O)c2nc3sccn3c2/C(C)=N/N=C(N)N)nc2sccn12 | > 100 | > 100 | > 100 | > 100 | > 100 | > 100 | > 100 | 42.5 | 55.1 | – | – | – | – | – | – | – | – | – | – | –
O=C1CCSSCCC(=O)Nc2ccccc2N1 | > 100 | > 100 | > 100 | > 100 | > 100 | > 100 | > 100 | > 100 | > 100 | – | – | – | – | – | – | – | – | – | – | –
CC(C)=CCN(N=O)c1ncnc2nc[nH]c12 | > 100 | > 100 | > 100 | > 100 | > 100 | > 100 | > 100 | > 100 | > 100 | – | – | – | – | – | – | – | – | – | – | –
CC1=NNC(N)=N/C1=C/C(Sc1ccc(Cl)cc1)c1cccs1 (stereo not given) | > 100 | 29 | 28 | > 100 | 32.6 | 76.6 | 35.2 | 62.2 | > 100 | – | – | – | – | – | – | – | – | – | – | –
NC1=NS(=O)(=O)N=C(N)C1=Cc1ccc([N+](=O)[O-])o1 | – | 32.1 | 26.9 | 40.7 | 53.7 | 34.1 | 32.9 | – | 32.6 | 30.3 | 31.9 | – | – | – | – | – | – | – | – | –
CC(=O)N(C(C)=O)n1c(Cc2ccc(Cl)cc2)nn(C(C)=O)c1=O | > 100 | > 100 | > 100 | > 100 | > 100 | > 100 | > 100 | > 100 | > 100 | – | – | – | – | – | – | – | – | – | – | –
COc1ccccc1C1C(C#N)=C(N)OC2=C1C(=O)CCC2 (stereo not given) | > 100 | > 100 | > 100 | > 100 | > 100 | > 100 | > 100 | > 100 | > 100 | – | – | > 100 | > 100 | > 100 | > 100 | 74.2 | > 100 | > 100 | > 100 | > 100
Cc1ccc(-c2cc(-c3ccc(Cl)cc3)nc(/N=C3\C(=O)N(CN4CCCCC4)c4ccc(Cl)cc43)n2)cc1 | 49.4 | 34.2 | 46.6 | 63.4 | > 100 | > 100 | > 100 | > 100 | 71.1 | – | – | – | – | – | – | – | – | – | – | –
CCCCn1cc(C(=O)O)c(=O)c2c3sccc3ccc21 | > 100 | > 100 | > 100 | > 100 | > 100 | > 100 | > 100 | > 100 | > 100 | – | – | – | – | – | – | – | – | – | – | –
COc1cn2c(cc1=O)COc1ccc(-c3ccccc3)cc1-2 | > 100 | > 100 | > 100 | > 100 | > 100 | > 100 | > 100 | > 83.3 | > 79.8 | – | – | 43.6 | – | – | – | – | – | – | – | –
CCCCN(CCCC)C(=NCc1ccccc1)NC#N | – | 59.2 | 52.1 | – | 64.8 | > 100 | 81.7 | – | 85.2 | 75.7 | – | – | – | – | – | – | – | – | – | –
Cc1cccc(NC(=O)CC(=O)N2N=C(N3c4ccccc4Sc4ccccc43)CC2c2ccccc2)c1 (stereo not given) | > 100 | > 100 | > 100 | > 100 | > 100 | > 100 | > 100 | > 100 | > 100 | – | – | – | – | – | – | – | – | – | – | –

From PubChem BioAssay (NCI)
